The series is described as follows: activity coefficient (dimensionless); of the first substance listed, at infinite dilution; xn = mol fraction of the nth substance listed. The following applies: 101 kPa, Liquid, Chromatography, x1 = 0.

± gives the expanded uncertainty stated by the source.

Turning to `c1ccsc1` [thiophene] + CC1(C)[C@@H]2CC[C@@]1(CS(=O)(=O)[O-])C(=O)C2.CCCCCCCCCCCCCC[N+](CCCCCC)(CCCCCC)CCCCCC, the activity coefficient came to 0.28 ± 0.03 (323.15 K), 0.42 ± 0.04 (333.15 K) and 0.56 ± 0.04 (343.15 K).
Regarding `CCCC(C)=O` [pentan-2-one] + CCCCCCCCCCCCCC[N+](CCCCCC)(CCCCCC)CCCCCC.C[C@H](O)C(=O)[O-], the activity coefficient runs as follows: (323.15 K) 0.6 ± 0.1; (353.15 K) 0.59 ± 0.04; (373.15 K) 0.59 ± 0.04.
Turning to `ClC(Cl)Cl` [trichloromethane] + CC1(C)[C@@H]2CC[C@@]1(CS(=O)(=O)[O-])C(=O)C2.CCCCCCCCCCCCCC[N+](CCCCCC)(CCCCCC)CCCCCC, the activity coefficient is, setting by setting: (323.15 K) 0.05; (333.15 K) 0.09 ± 0.03; (343.15 K) 0.15 ± 0.03.
Consider `C1CCCCC1` [cyclohexane] + CCCCCCCCCCCCCC[N+](CCCCCC)(CCCCCC)CCCCCC.C[C@H](O)C(=O)[O-], for which the activity coefficient by setting is: (323.15 K) 0.77 ± 0.05; (353.15 K) 0.73 ± 0.05; (373.15 K) 0.71 ± 0.05.
Turning to `CCCCCCC` [heptane] + CC1(C)[C@@H]2CC[C@@]1(CS(=O)(=O)[O-])C(=O)C2.CCCCCCCCCCCCCC[N+](CCCCCC)(CCCCCC)CCCCCC, the activity coefficient reads like this: (323.15 K) 1.14 ± 0.07; (333.15 K) 1.57 ± 0.1; (343.15 K) 2.14 ± 0.15.
With `CC#N` [acetonitrile] + CC1(C)[C@@H]2CC[C@@]1(CS(=O)(=O)[O-])C(=O)C2.CCCCCCCCCCCCCC[N+](CCCCCC)(CCCCCC)CCCCCC, the activity coefficient was determined as 0.46 ± 0.04 (323.15 K), 0.66 ± 0.05 (333.15 K) and 0.89 ± 0.06 (343.15 K).
Turning to `ClC(Cl)(Cl)Cl` [tetrachloromethane] + CC1(C)[C@@H]2CC[C@@]1(CS(=O)(=O)[O-])C(=O)C2.CCCCCCCCCCCCCC[N+](CCCCCC)(CCCCCC)CCCCCC, the activity coefficient came to 0.35 ± 0.03 (323.15 K), 0.51 ± 0.04 (333.15 K) and 0.75 ± 0.05 (343.15 K).
Taken in the same sequence, the figures for `CCC(=O)CC` [pentan-3-one] + CC1(C)[C@@H]2CC[C@@]1(CS(=O)(=O)[O-])C(=O)C2.CCCCCCCCCCCCCC[N+](CCCCCC)(CCCCCC)CCCCCC were 0.47 ± 0.04, 0.71 ± 0.05 and 1.03 ± 0.06.
Turning to `C=CCCCC` [hex-1-ene] + CCCCCCCCCCCCCC[N+](CCCCCC)(CCCCCC)CCCCCC.C[C@H](O)C(=O)[O-], the activity coefficient was 0.93 ± 0.06 (323.15 K), 0.95 ± 0.06 (353.15 K) and 0.97 ± 0.06 (373.15 K).
On to `C#CCCCC` [1-hexyne] + CC1(C)[C@@H]2CC[C@@]1(CS(=O)(=O)[O-])C(=O)C2.CCCCCCCCCCCCCC[N+](CCCCCC)(CCCCCC)CCCCCC, for which the activity coefficient (323.15 K) was 0.46 ± 0.04, the activity coefficient (333.15 K) amounted to 0.69 ± 0.05 and the activity coefficient (343.15 K) turned out to be 0.95 ± 0.06.
For `CO` [methanol] + CC1(C)[C@@H]2CC[C@@]1(CS(=O)(=O)[O-])C(=O)C2.CCCCCCCCCCCCCC[N+](CCCCCC)(CCCCCC)CCCCCC, in that order: 0.08 ± 0.03, 0.13 ± 0.03 and 0.2.
Consider `CCc1ccccc1` [ethylbenzene] + CC1(C)[C@@H]2CC[C@@]1(CS(=O)(=O)[O-])C(=O)C2.CCCCCCCCCCCCCC[N+](CCCCCC)(CCCCCC)CCCCCC, for which the activity coefficient reads like this: (323.15 K) 0.49 ± 0.04; (333.15 K) 0.76 ± 0.05; (343.15 K) 1.11 ± 0.07.
Taken in the same sequence, the figures for `CC1CCCC1` [methylcyclopentane] + CC1(C)[C@@H]2CC[C@@]1(CS(=O)(=O)[O-])C(=O)C2.CCCCCCCCCCCCCC[N+](CCCCCC)(CCCCCC)CCCCCC were 0.75 ± 0.05, 1 and 1.33 ± 0.09.
On to `CCCCCCCC` [octane] + CCCCCCCCCCCCCC[N+](CCCCCC)(CCCCCC)CCCCCC.C[C@H](O)C(=O)[O-], for which the activity coefficient runs as follows: (323.15 K) 1.37 ± 0.09; (353.15 K) 1.31 ± 0.09; (373.15 K) 1.29 ± 0.08.
Consider `C[N+](=O)[O-]` [nitromethane] + CCCCCCCCCCCCCC[N+](CCCCCC)(CCCCCC)CCCCCC.C[C@H](O)C(=O)[O-], for which the activity coefficient was determined as 0.32 ± 0.03 (323.15 K), 0.31 ± 0.03 (353.15 K) and 0.31 ± 0.03 (373.15 K).
Regarding `CCO` [ethanol] + CCCCCCCCCCCCCC[N+](CCCCCC)(CCCCCC)CCCCCC.C[C@H](O)C(=O)[O-], the activity coefficient runs as follows: (323.15 K) 0.03; (353.15 K) 0.03; (373.15 K) 0.04.
In the case of `ClCCl` [dichloromethane] + CCCCCCCCCCCCCC[N+](CCCCCC)(CCCCCC)CCCCCC.C[C@H](O)C(=O)[O-], the activity coefficient runs as follows: (323.15 K) 0.06; (353.15 K) 0.08 ± 0.03; (373.15 K) 0.1.
Take `C#CCCCCC` [1-heptyne] + CC1(C)[C@@H]2CC[C@@]1(CS(=O)(=O)[O-])C(=O)C2.CCCCCCCCCCCCCC[N+](CCCCCC)(CCCCCC)CCCCCC: the activity coefficient stood at 0.49 ± 0.04 (323.15 K), 0.78 ± 0.05 (333.15 K) and 1.17 ± 0.07 (343.15 K).
For the molecule `CCCCCCCCC` [nonane] + CCCCCCCCCCCCCC[N+](CCCCCC)(CCCCCC)CCCCCC.C[C@H](O)C(=O)[O-], the activity coefficient was found to be 1.67 ± 0.11 (323.15 K), 1.59 ± 0.11 (353.15 K) and 1.51 ± 0.1 (373.15 K).
For the molecule `c1ccccc1` [benzene] + CCCCCCCCCCCCCC[N+](CCCCCC)(CCCCCC)CCCCCC.C[C@H](O)C(=O)[O-], the activity coefficient is 0.38 ± 0.03 (323.15 K), 0.38 ± 0.03 (353.15 K) and 0.39 ± 0.03 (373.15 K).
With `CCC[N+](=O)[O-]` [1-nitropropane] + CC1(C)[C@@H]2CC[C@@]1(CS(=O)(=O)[O-])C(=O)C2.CCCCCCCCCCCCCC[N+](CCCCCC)(CCCCCC)CCCCCC, the activity coefficient runs as follows: (323.15 K) 0.35 ± 0.03; (333.15 K) 0.55 ± 0.04; (343.15 K) 0.82 ± 0.05.
For `CC1CCCCC1` [methylcyclohexane] + CC1(C)[C@@H]2CC[C@@]1(CS(=O)(=O)[O-])C(=O)C2.CCCCCCCCCCCCCC[N+](CCCCCC)(CCCCCC)CCCCCC, in that order: 0.75 ± 0.05, 1 and 1.33 ± 0.09.
Turning to `C1COCCO1` [1,4-dioxane] + CC1(C)[C@@H]2CC[C@@]1(CS(=O)(=O)[O-])C(=O)C2.CCCCCCCCCCCCCC[N+](CCCCCC)(CCCCCC)CCCCCC, the activity coefficient is, setting by setting: (323.15 K) 0.52 ± 0.04; (333.15 K) 0.74 ± 0.05; (343.15 K) 1.
For the molecule `c1ccccc1` [benzene] + CC1(C)[C@@H]2CC[C@@]1(CS(=O)(=O)[O-])C(=O)C2.CCCCCCCCCCCCCC[N+](CCCCCC)(CCCCCC)CCCCCC, the activity coefficient was 0.36 ± 0.03 (323.15 K), 0.51 ± 0.04 (333.15 K) and 0.69 ± 0.05 (343.15 K).
On to `CCOCC` [diethyl ether] + CC1(C)[C@@H]2CC[C@@]1(CS(=O)(=O)[O-])C(=O)C2.CCCCCCCCCCCCCC[N+](CCCCCC)(CCCCCC)CCCCCC, for which the activity coefficient (323.15 K) was 0.73 ± 0.05, the activity coefficient (333.15 K) stood at 0.96 ± 0.06 and the activity coefficient (343.15 K) turned out to be 1.14 ± 0.07.
Regarding `Cc1cccc(C)c1` [1,3-dimethylbenzene] + CC1(C)[C@@H]2CC[C@@]1(CS(=O)(=O)[O-])C(=O)C2.CCCCCCCCCCCCCC[N+](CCCCCC)(CCCCCC)CCCCCC, the activity coefficient runs as follows: (323.15 K) 0.52 ± 0.04; (333.15 K) 0.81 ± 0.05; (343.15 K) 1.16 ± 0.07.
Take `CCOCC` [diethyl ether] + CCCCCCCCCCCCCC[N+](CCCCCC)(CCCCCC)CCCCCC.C[C@H](O)C(=O)[O-]: the activity coefficient by setting is: (323.15 K) 0.84 ± 0.05; (353.15 K) 0.79 ± 0.05; (373.15 K) 0.77 ± 0.05.
In the case of `CCCCCCC` [heptane] + CCCCCCCCCCCCCC[N+](CCCCCC)(CCCCCC)CCCCCC.C[C@H](O)C(=O)[O-], the activity coefficient (323.15 K) is 1.22 ± 0.08, the activity coefficient (353.15 K) was found to be 1.17 ± 0.07 and the activity coefficient (373.15 K) amounted to 1.16 ± 0.07.
For the molecule `CCCCCC` [hexane] + CCCCCCCCCCCCCC[N+](CCCCCC)(CCCCCC)CCCCCC.C[C@H](O)C(=O)[O-], the activity coefficient reads like this: (323.15 K) 1.11 ± 0.07; (353.15 K) 1.06 ± 0.07; (373.15 K) 1.06 ± 0.07.
Regarding `Cc1ccc(C)cc1` [1,4-dimethylbenzene] + CC1(C)[C@@H]2CC[C@@]1(CS(=O)(=O)[O-])C(=O)C2.CCCCCCCCCCCCCC[N+](CCCCCC)(CCCCCC)CCCCCC, the activity coefficient was found to be 0.51 ± 0.04 (323.15 K), 0.8 ± 0.1 (333.15 K) and 1.17 ± 0.07 (343.15 K).
Regarding `c1ccsc1` [thiophene] + CCCCCCCCCCCCCC[N+](CCCCCC)(CCCCCC)CCCCCC.C[C@H](O)C(=O)[O-], the activity coefficient is, setting by setting: (323.15 K) 0.28 ± 0.03; (353.15 K) 0.29 ± 0.03; (373.15 K) 0.3 ± 0.1.
For the molecule `CO` [methanol] + CCCCCCCCCCCCCC[N+](CCCCCC)(CCCCCC)CCCCCC.C[C@H](O)C(=O)[O-], the activity coefficient (323.15 K) came out at 0.03, the activity coefficient (353.15 K) turned out to be 0.03 and the activity coefficient (373.15 K) stood at 0.03.
For `CC(C)OC(C)C` [diisopropyl ether] + CCCCCCCCCCCCCC[N+](CCCCCC)(CCCCCC)CCCCCC.C[C@H](O)C(=O)[O-], the activity coefficient by setting is: (323.15 K) 1.13 ± 0.07; (353.15 K) 1.08 ± 0.07; (373.15 K) 1.06 ± 0.07.
On to `CC1CCCC1` [methylcyclopentane] + CCCCCCCCCCCCCC[N+](CCCCCC)(CCCCCC)CCCCCC.C[C@H](O)C(=O)[O-], for which the activity coefficient runs as follows: (323.15 K) 0.82 ± 0.05; (353.15 K) 0.78 ± 0.05; (373.15 K) 0.77 ± 0.05.
Regarding `ClC(Cl)(Cl)Cl` [tetrachloromethane] + CCCCCCCCCCCCCC[N+](CCCCCC)(CCCCCC)CCCCCC.C[C@H](O)C(=O)[O-], the activity coefficient reads like this: (323.15 K) 0.24 ± 0.03; (353.15 K) 0.26 ± 0.03; (373.15 K) 0.29 ± 0.03.

For the origin of these results see the NIST ThermoML archive (doi:10.1021/je500050p).
